Data taken from patent publication US20040167203A1, “Absorption enhancing agents” (priority 2003, published 2004).
Where two headings read alike, the source gives them in different places. Values belong to the compound of their own block, whether it stands above or below them.

How the values were obtained:
Caco-2 cell line [1] = assay type: in vitro ADME, human
Source text: (§1) The Caco-2 cell line is a well-recognized in vitro screening model, which both structurally and functionally represents the small intestinal epithelium. Caco-2 cells are derived from human colon carcinoma cells and differentiate in culture to form intestinal epithelia similar to that found in the small intestine. More specifically, Caco-2 cells form a brush border with normal enzymes, form tight junctions between cells, and acquire the barrier properties of an enterocyte sheet. […] The absorption enhancers were tested using two model drugs, sampatrilat and hydrochlorothiazide. In addition, a lactate dehydrogenase (LDH) assay was conducted after the permeation studies to evaluate the cytotoxicity of the absorption enhancers as well as to discover any violation of the integrity of the Caco-2 cells. LDH is a cytosolic enzyme that is not normally secreted outside the cell. However, it leaks into the culture medium upon damage to the cell membranes. In vitro release of LDH from cells provides an accurate measure of cell membrane integrity and cell viability. […] Wu, S.-J., et al, Pharmaceutical Res., 16(8): 1266-1272 (1999); Allen, M. J. et al., Promega Notes Magazine, Number 45, p. 7 (1994); or Ehrlich, M. et al, Current Protocols in Toxicology, John Wiley & Sons, New York (2000). LDH leakage into the apical compartment of the Caco-2 cell system was used to measure the effect, if any, of a given absorption enhancer on the viability of the Caco-2 cells.
Permeability coefficients are determined as previously reported by Yazdania et.el (Yazdanian M, Glynn, S I, Wright J L, et al. 1998. Correlating partitioning and Caco-2 permeability of structurally diverse small molecular weight compounds. Pharm Res 15:1490-1494). Briefly, drug solutions were prepared in HBSS at a known final concentration. For AP to BL experiments, the solution was placed on the apical side of the cells and samples were taken from basolateral side. In contrast, for BL to AP experiments, the solution was placed on the basolateral side of the cells and samples were taken from apical side. The samples are analyzed by an HPLC. Transport rates (J) are determined by plotting cumulative amounts of drug permeated as a function of time. Apparent permeability coefficients Pcaco-2, are determined according to the equation Pcaco-2=J/ACi where Ci is the initial concentration of the solution in donor chamber and A is the surface area of the filter.

Caco-2 cells = test: Lactate dehydrogenase (LDH) leakage assay after permeation studies; assay type: cell-based, human; conditions: relative to cells treated with Hank's balanced salt solution alone
Source text: as §1

Caco-2 cell line [2] = test: in vitro; assay type: in vitro ADME; conditions: human, Caco-2, 1 % w/v
Source text: as §1
(§2) Permeability coefficients are determined as previously reported by Yazdania et.el (Yazdanian M, Glynn, S I, Wright J L, et al. 1998. Correlating partitioning and Caco-2 permeability of structurally diverse small molecular weight compounds. Pharm Res 15:1490-1494). […] The samples are analyzed by an HPLC. Transport rates (J) are determined by plotting cumulative amounts of drug permeated as a function of time. Apparent permeability coefficients Pcaco-2, are determined according to the equation Pcaco-2=J/ACi where Ci is the initial concentration of the solution in donor chamber and A is the surface area of the filter. […]

Caco-2 cell line [3] = assay type: in vitro ADME; conditions: human, Caco-2, 1.8 mg/mL
Description: The original cell line integrity and the effect of excipients on the integrity of cell line were also tested by measuring the flux of ^14C-mannitol.

in vitro = in vitro ADME; conditions: human, Caco-2
Source text: as §1, §2

Compound: O=C(/C=C/C=C/c1ccc2c(c1)OCO2)N1CCCCC1 [Piperine, piperine]
Potency in permeability enhancement (in words) (Caco-2 cell line [1]; human): low or no potency

Compound: CS(=O)(=O)N[C@@H](CCCCN)C(=O)NC[C@H](CC1(C(=O)N[C@@H](Cc2ccc(O)cc2)C(=O)O)CCCC1)C(=O)O [Sampatrilat]
Permeability Coefficient, Mannitol (Caco-2 cell line [3]): 4.9 10E−7 cm/s
Papp A→B at 1.8 mg/mL (in vitro): 0.16 ×10⁻⁶ cm/s

Compound: O=C(O)C1=C[C@@H](O)[C@@H](O)[C@H](O)C1 [Shikimic acid, shikimic acid]
Cytotoxicity (LDH assay) (Caco-2 cells): not cytotoxic

Continued, in another order:

Potency in permeability enhancement (in words) (Caco-2 cell line [1]): low or no potency
Compound: O=C1CCCCCCCCCCCCCCO1 [Cyclopentadecanolide, cyclopentadecanolide]

Potency in permeability enhancement (in words) (Caco-2 cell line [1]; human): low or no potency
Compound: CC1(C)[C@@H](O)CC[C@]2(C)[C@H]3C(=O)C=C4[C@@H]5C[C@@](C)(C(=O)O)CC[C@]5(C)CC[C@@]4(C)[C@]3(C)CC[C@@H]12 [Glycyrrehetinic acid, 18 β-glycyrrhetinic acid]

Effect on sampatrilat permeation across the Caco-2 cell line (in words) (Caco-2 cell line [2]): significantly increase
Compound: CN(C)CC(=O)O [N,N-dimethylglycine]
Cytotoxicity (LDH assay) (Caco-2 cells): not cytotoxic

Effect on sampatrilat permeation across the Caco-2 cell line (in words) (Caco-2 cell line [2]): significantly increase
Compound: O=C(O)CCCCCCCCC(=O)O [Sebacic acid, sebacic acid]
Cytotoxicity (LDH assay) (Caco-2 cells): not cytotoxic

Potency in permeability enhancement (in words) (Caco-2 cell line [1]): low or no potency
Compound: Vitamin E TPGS [Vitamin E TGPS]
